Literature values in patent publication US10653742B2, “Anti-inflammatory use of liquid phytocomplexes from olive” (FATTORIA LA VIALLA DI GIANNI, ANTONIO E BANDINO LO …, priority 2013, dated 2020).

Settings: also in high concentrations

OCCc1ccc(O)c(O)c1 [Hydroxytyrosol]
toxic effect on in vivo administration: no toxic effect
